The values that follow come from publication PMC2964152 (Journal of medicinal chemistry, 2010).

Where a name gives a salt, the structure may show the parent alone.

In data set [1] the test system is three melanoma cell lines and four human prostate cancer cell lines. Nature of the data set: In vitro growth inhibition, average of all seven cell lines. The settings on record: for IC50: read-out: average IC50, average of all seven cell lines, as given in the text. The format is cell-based.
For the next data set, the system named is MDA-MB-435. Nature of the data set: In vitro growth inhibition, sensitive parent melanoma cell line. The settings on record: read-out: IC50 ± SEM MDA-MB-435, n=3. Format: cell-based, human.
A short description of data set [2]: Body weight during the in vivo efficacy study. The conditions noted are these: any of the treatment groups, during the experiment.
A short description of data set [3]: Aqueous solubility, miniaturized shake-flask method with LC-MS/MS. The format is physicochemical.
For another data set, the system named is Bovine brain tubulin. Nature of the data set: In vitro microtubule polymerization assay. Format: biochemical. The conditions noted are these: 10 μM compound, absorbance at 340 nm, 15 min, 37°C.

Turning to `Cc1ccc(C(=O)c2c[nH]c(-c3ccccc3)n2)cc1` [5ah, (2-Phenyl-1H-imidazol-4-yl)(p-tolyl)methanone], in data set [1], the 50% inhibitory concentration (IC50) was above 10000 nM.
“(2-(4-(Dimethylamino)phenyl)-1-(phenylsulfonyl)-1H-imidazol-4-yl)(3, 4, 5-trimethoxyphenyl) methanone [4ga]”: the IC50 in data set [1] worked out at 285 nM.
On to “(2-(4-Chlorophenyl)-1-(phenylsulfonyl)-1H-imidazol-4-yl)(4-fluorophenyl)methanone [4fb]”, for which the half-inhibitory concentration (IC50) in the data set on MDA-MB-435 was found to be 50 ± 6 nM.
`Cc1cccc(C(=O)c2c[nH]c(-c3ccccc3)n2)c1` [5ai, (2-Phenyl-1H-imidazol-4-yl)(m-tolyl)methanone]: the IC50 in data set [1] is above 10000 nM.
Same read-out and setting: the same measure for “(4-Fluorophenyl)(2-(2-(trifluoromethyl)phenyl)-1H-imidazol-4-yl)methanone [5ib]”: above 10000 nM; for `O=C(c1cccc(F)c1)c1c[nH]c(-c2ccccc2)n1` [5ag, (3-Fluorophenyl)(2-phenyl-1H-imidazol-4-yl)methanone]: above 10000 nM.
As for `CN(C)/N=N/c1[nH]cnc1C(N)=O` [DTIC, dacarbazine, reference compound], in data set [2], the weight loss result is on record as “No significant weight loss”.
On to `COc1cc(C(=O)c2c[nH]c(-c3cc(OC)c(OC)c(OC)c3)n2)cc(OC)c1OC` [5ea, (3,4,5-Trimethoxyphenyl)(2-(3,4,5-trimethoxyphenyl)-1H-imidazol-4-yl)methanone], for which the IC50 in data set [1] was above 10000 nM.
On to “(4-Fluorophenyl)(2-(4-methoxyphenyl)-1-(phenylsulfonyl)-1H-imidazol-4-yl) methanone [4cb]”, for which the IC50 in data set [1] was found to be 43 nM; with MDA-MB-435, 38 ± 3 nM.
As for `COc1ccc(-c2nc(C(=O)c3cc(OC)c(OC)c(OC)c3)c[nH]2)cc1OC` [5ha, (2-(3,4-Dimethoxyphenyl)-1H-imidazol-4-yl)(3,4,5-trimethoxyphenyl)methanone], the half-inhibitory concentration (IC50) in data set [1] was 330 nM.
With `COc1ccc(-c2nc(C(=O)c3ccc(F)cc3)c[nH]2)cc1` [5cb, (4-Fluorophenyl)(2-(4-methoxyphenyl)-1H-imidazol-4-yl)methanone], the weight loss entry in data set [2] is on record as “No significant weight loss”.
For the compound `COc1cc(C(=O)n2ccnc2-c2ccccc2)cc(OC)c1OC` [5aaa, (2-Phenyl-1H-imidazol-1-yl)(3,4,5-trimethoxyphenyl) methanone], the 50% inhibitory concentration (IC50) in data set [1] is above 10000 nM.
Same read-out and setting: as for `COc1cc(-c2nc(C(=O)c3ccc(F)cc3)c[nH]2)cc(OC)c1OC` [5eb, (4-Fluorophenyl)(2-(3,4,5-trimethoxyphenyl)-1H-imidazol-4-yl)methanone], the figure is above 10000 nM; as for `COc1cccc(C(=O)c2c[nH]c(-c3ccccc3)n2)c1` [5ac, (3-Methoxyphenyl)(2-phenyl-1H-imidazol-4-yl)methanone], above 10000 nM.
On the same count and under the same terms, as for `O=S(=O)(c1ccccc1)n1ccnc1-c1ccc(OCc2ccccc2)cc1` [3j, 2-(4-(Benzyloxy)phenyl)-1-(phenylsulfonyl)-1H-imidazole], the figure is above 10000 nM; as for `Cc1ccc(-c2nc(C(=O)c3ccc(F)cc3)c[nH]2)cc1` [5db-HCl, (4-Fluorophenyl)(2-(p-tolyl)-1H-imidazol-4-yl)methanone HCl salt], 172 nM; as for `COc1ccc(C(=O)c2c[nH]c(-c3ccccc3)n2)cc1` [5ab, (4-Methoxyphenyl)(2-phenyl-1 H-imidazol-4-yl)methanone], above 10000 nM.
Same read-out and setting: as for `O=S(=O)(c1ccccc1)n1ccnc1-c1ccccc1` [3a, 2-Phenyl-1-(phenylsulfonyl)-1H-imidazole], the figure is above 10000 nM; as for “(4-Fluorophenyl)(1-(phenylsulfonyl)-2-(p-tolyl)-1H-imidazol-4-yl) methanone [4db]”, 111 nM; as for `O=[N+]([O-])c1ccc(-c2nccn2S(=O)(=O)c2ccccc2)cc1` [3x, 2-(4-Nitrophenyl)-1-(phenylsulfonyl)-1H -imidazole], above 10000 nM.
With “(2-(3, 4-Dimethoxyphenyl)-1-(phenylsulfonyl)-1H-imidazol-4-yl)(3,4,5-trimethoxyphenyl)methanone [4ha]”, the IC50 in data set [1] turned out to be 268 nM.
Take `COc1cc(C(=O)c2c[nH]c(-c3ccc(C(F)(F)F)cc3)n2)cc(OC)c1OC` [5la, (2-(4-(Trifluoromethyl)phenyl)-1H-imidazol-4-yl)(3,4,5-trimethoxyphenyl)methanone]: the “fold decrease of activity compared with compound 5da” value in data set [1] (from average IC50 values) amounted to 12 fold. Moreover, the IC50 in data set [1] came to 193 nM.
For the compound “(2-(4-(Dimethylamino)phenyl)-1-(phenylsulfonyl)-1H-imidazol-4-yl)(4-fluorophenyl)methanone [4gb]”, in data set [1], the IC50 worked out at 87 nM.
With `O=C(c1ccc(F)cc1)c1c[nH]c(-c2ccc(OCc3ccccc3)cc2)n1` [5jb, (2-(4-(Benzyloxy)phenyl)-1H-imidazol-4-yl)(4-fluorophenyl)methanone], the “fold increase in activity compared with 5kb” value in data set [1] (from average IC50 values) came out at 440 fold. The IC50 in data set [1] came to 75 nM.
As for “(2-(4-(Benzyloxy)phenyl)-1-(phenylsulfonyl)-1 H-imidazol-4-yl)(4-fluorophenyl) methanone [4jb]”, in data set [1], the IC50 worked out at 61 nM.
On the same count and under the same terms, the same measure for `COc1ccc(C(=O)c2c[nH]c(-c3ccccc3)n2)cc1OC` [5ae, (3,4-Dimethoxyphenyl)(2-phenyl-1H-imidazol-4-yl)methanone]: above 10000 nM.
As for `COc1cc(C(=O)c2c[nH]c(-c3ccc(N(C)C)cc3)n2)cc(OC)c1OC` [5ga, (2-(4-(Dimethylamino)phenyl)-1H-imidazol-4-yl)(3,4,5-trimethoxyphenyl)methanone], in data set [1], the half-maximal inhibitory concentration (IC50) was determined as 131 nM. The entries for the “aqueous solubility, times greater than SMART-1” value in data set [3] (buffer pH7.0) and in data set [3] (water) were “about 50 times” and around 10 times, respectively.
Take `COc1ccc(C(=O)n2ccnc2-c2ccccc2)cc1` [5aba, (4-Methoxyphenyl)(2-phenyl-1H-imidazol-1-yl) methanone]: the IC50 in data set [1] was above 10000 nM.
Same read-out and setting: as for `COc1cc(C(=O)c2c[nH]c(-c3ccc(OCc4ccccc4)cc3)n2)cc(OC)c1OC` [5ja, (2-(4-(Benzyloxy)phenyl)-1H-imidazol-4-yl)(3,4,5-trimethoxyphenyl)methanone], the figure is 7300 nM.
Regarding `COc1cc(C(=O)c2c[nH]c(-c3ccc(C)cc3)n2)cc(OC)c1OC` [5da, (2-(p-Tolyl)-1H-imidazol-4-yl)(3,4,5-trimethoxyphenyl)methanone], the “inhibition of tubulin polymerization” value in the data set with Bovine brain tubulin was “completely inhibited”.
